Patent US6281250A, “Retinyl ethers, derivatives and analogues and inhibition of breast carcinogenesis” (Southern Research Institute, priority 1999, dated 2001)
Entries after “also recorded” stand apart in the source; their conditions may differ. Values belong to the compound of their own block, whether it stands above or below them.

What was measured:
[1] = target: T1, cellular retinol-binding protein (CRBP) (Rattus norvegicus, UniProt P02696); experiment: Binding to cellular retinol-binding protein (CRBP): inhibition of [3H]retinol binding, sucrose density-gradient sedimentation; conditions: for Percent Inhibition of [3H] Retinol Binding (CRBP Assay): 150-fold molar excess of unlabelled test retinoid, rat testes cytosol
T1 construct: portions of rat testes cytosol (1 mg protein) were incubated; from tissue; host or cells: rat testes cytosol
T1 sequence (P02696 1-135): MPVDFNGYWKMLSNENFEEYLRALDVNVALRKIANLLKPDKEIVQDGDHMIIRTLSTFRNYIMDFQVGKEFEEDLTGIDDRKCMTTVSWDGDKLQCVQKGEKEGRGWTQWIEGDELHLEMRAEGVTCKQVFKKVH
Description: Binding affinities of the retinyl ethers for CRBP were determined by sucrose, density-gradient, sedimentation analysis as described before (Sani et al., 1980). Briefly, portions of rat testes cytosol (1 mg protein) were incubated with [^3 H]retinol (50 pmol) in the presence or absence of a 150-fold molar excess of unlabeled retinol or the test retinoids. The preparations after dialysis were analyzed by 5-20% sucrose density gradient sedimentation. For measuring the competitive binding of the unlabeled retinoids, inhibition of [^3 H]retinol binding to CRBP by unlabeled retinol is regarded as 100%. The mean and standard deviation calculated from the relative inhibitions obtained from multiple determinations were used as the relative binding affinities of the various retinyl ethers.
The group of retinyl benzyl ethers has now been evaluated for binding to CRBP. Binding to CRBP, as defined for Table I, at approximately 60% or higher was rated as strong; at 40-60%, as moderate; at 20-40%, as low.
^a Per cent inhibition of binding of tritiated retinol to CRBP by a
150-fold molar excess of the unlabelled test retinoid (Sani et al., 1980,

[2] = system: MNU-induced mammary cancer; experiment: Short-term (90-day) assay against MNU-induced mammary cancer in rats (Expts. 2 and 3); format: in vivo, rat (female Sprague-Dawley); conditions: for effectiveness in reducing the number of tumors per rat: in feed
Description: (§1) Retinoid diet mixtures were stored at 4° C. […] The animals were palpated for mammary tumors 2×/week. […] Also, five rats/group had complete necropsies performed.
(§2) The 2,5-dimethoxybenzyl (3b) and 4-methoxybenzyl (3e) ethers were tested in the same way in a 90-day study. […] The 2,5-dimethybenzyl (3c) and the 2,3-dimethoxybenzyl (3h) ethers, together with RTMBE for comparison, were likewise assayed according to the same methodology. Prior to the beginning of this study, specimens of the retinoid-diet mixtures were placed under the conditions that were employed during the storage and feeding of RTMBE, 3c, and 3h. The specimens were extracted with butanol, and the extracts were analyzed by HPLC. […] Testing of 3c and 3h was discontinued, but the RTMBE study was continued until the duration of the study was 180 days (Table 6). The results were similar to those of Experiment 1 (Table 3). The averages of the number of tumors per rat were reduced by 32-35%; in addition, the averages of the tumor weights per rat was 56-70% lower than the average tumor burden of the control group.
and was continued until the studies of 3b, 3c, 3e, and 3h were terminated
90 days after administration of MNU. The RTMBE experiment was continued
until 180 days after MNU administration (Table VI).
kilogram of Teklad diet.

[3] = Analysis of feed samples for stability of retinyl ethers; format: physicochemical; conditions: for % recovery of retinyl ether: Vehicle + Retinoid (only); for stability in diet mixtures: conditions of storage and feeding in animal rooms
Description: as §2
^a The values in each column are % recoveries of the retinyl ether from
mixtures of the ether with feed samples and are based on the actual
amounts of the ether that were added.
^b The samples that were analyzed were mixtures of vehicle, retinoid,
and feed (prepared as described by Shealy et al., 1997).
^c Food cups were placed in animal cages within the room that housed
the rats; therefore, temperature (22° C.) and lighting were
identical to those in use during the in vivo tests.

in vivo = conditions: for NOAEL: mouse, in vivo, po; for Toxic Dose: oral gavage in corn oil, 28-29 days; for clinical toxicity (alopecia, scaly skin, limping): oral gavage, up to highest dose (RTMBE and RMoBE-4: Expt. 2)
Description: Toxicological evaluations involving measurement of body weights and observations of clinical signs characteristic of retinoid toxicity were accomplished as previously described (Lin et al., 1996).
RTMBE and two of its analogues, together with RME and RPE, were selected for estimation of their toxicities to mice when administered during 28-29 days by gavage in corn oil (Table 8). Mice were evaluated for changes in body weight and for signs of clinical retinoid toxicity (hypervitaminosis A) including alopecia, scaly skin, and limping. In the first experiment, these retinyl ethers were given at equimicromolar doses at three dose levels. The retinyl benzyl ethers (RTMBE, 3c, and 3e) were then tested at higher doses in a second experiment.

[4] = Toxicity observations in rats receiving retinoids in feed; format: in vivo, rat (Sprague-Dawley); conditions: administered in feed
Description: as §1

[5] = Mammary tissue-to-plasma concentration after intravenous dosing; format: in vivo, rat (female Sprague-Dawley); conditions: rat, 5 mg/kg i.v., after 24 hr, read-out: ratio of mammary tissue-to-plasma concentrations
[6] = rat, in feed; Shealy et al., 1997; cited from earlier work
[7] = system: carcinogen-induced mammary cancer; conditions: rats; Thompson et al., 1978 / Shealy et al., 1997; cited from earlier work
[8] = system: MNU-induced mammary cancer; conditions: 160 days
Description: Briefly, diets were prepared by mixing each retinoid with Wayne meal or Teklad (4%) mash diet. For each kg of diet, the retinoid was dissolved in 12 g ethanol, 19 g trioctanoin, 0.05 mL Tenox 20, and 0.05 mL d,1-alpha tocopherol prior to incorporation into the feed using a Patterson-Kelly blender. Retinoid diet mixtures were stored at 4° C. Portions of each retinoid-diet mixture were analyzed for the added retinoid to ensure homogeneity. Female Sprague-Dawley rats received an i.v. injection of MNU (45 mg/kg body weight) at 50 days of age. Diet supplementation with retinoids was initiated three days after MNU. A group of rats receiving retinyl acetate (1 mmol/kg of diet) served as the positive control. The animals were palpated for mammary tumors 2×/week. At termination of the study, mammary tumors were processed for histological classification. Also, five rats/group had complete necropsies performed. The tissues were examined histologically for pathological lesions as additional toxicological evaluation. Extracts of the liver and mammary gland (5 rats/group) were analyzed by HPLC for retinyl palmitate and/or for the dosed retinoid. Statistical analyses of cancer incidence and latency were determined using logrank analysis, while differences in cancer multiplicity were determined employing the Armitage test.
In this assay, described previously (Grubbs et al., 1995; Shealy el al., 1997), a retinoid dissolved in a solution (vehicle) consisting of ethanol and trioctanoin plus small amounts of Tenox 20 and α-tocopherol was mixed with feed, and the mixture was fed to rats after intravenous injection of MNU.
^a Female Sprague-Dawley rats (10/group) received one i.v. injection of
MNU (45 mg/kg of body weight) at 50 days of age. Diet supplementation with
retinoids was initiated at 52 days of age and was continued until the
study was terminated 160 days after administration of MNU.
^b Treatment with retinoids is stated in millimoles of retinoid per
kilogram of diet (Wayne meal).

[9] = system: MNU-induced mammary tumors; conditions: with MNU, 1 mmol/kg diet
Description: The methods employed in the preparation of diets, analyses of retinoid-dietspecimens, and dietary treatment with retinoids of MNU-induced mammary carcinogenesis in Sprague-Dawley rats were described previously (Grubbs et al., 1995; Shealy et al., 1997). Briefly, diets were prepared by mixing each retinoid with Wayne meal or Teklad (4%) mash diet. For each kg of diet, the retinoid was dissolved in 12 g ethanol, 19 g trioctanoin, 0.05 mL Tenox 20, and 0.05 mL d,1-alpha tocopherol prior to incorporation into the feed using a Patterson-Kelly blender. Retinoid diet mixtures were stored at 4° C. Portions of each retinoid-diet mixture were analyzed for the added retinoid to ensure homogeneity. Female Sprague-Dawley rats received an i.v. injection of MNU (45 mg/kg body weight) at 50 days of age. Diet supplementation with retinoids was initiated three days after MNU. A group of rats receiving retinyl acetate (1 mmol/kg of diet) served as the positive control. The animals were palpated for mammary tumors 2×/week. At termination of the study, mammary tumors were processed for histological classification. Also, five rats/group had complete necropsies performed. The tissues were examined histologically for pathological lesions as additional toxicological evaluation. Extracts of the liver and mammary gland (5 rats/group) were analyzed by HPLC for retinyl palmitate and/or for the dosed retinoid. Statistical analyses of cancer incidence and latency were determined using logrank analysis, while differences in cancer multiplicity were determined employing the Armitage test.
^b Average number of palpable mammary tumors.
^c Diet supplementation with retinoids was initiated at 52 days of age
and was continued until the study was terminated 180 days after
administration of MNU. Treatment with retinoids is stated in millimoles of
retinoid per kilogram of diet (Wayne meal).
^d Female Sprague-Dawley rats received one i.v. injection of MNU (50
mg/kg of body weight) at 50 days of age.

[10] = 24 hours or similar, protected from light and air; Shealy et al, 1997; cited from earlier work
[11] = Expt. 3, 0.5 mmol/kg diet, 90 days
[12] = Expt. 3, 1 mmol/kg diet, 90 days
[13] = Expt. 3, 2 mmol/kg diet, 90 days
[14] = After 1 week of 4° C., 10080 min
[15] = After 1 day in food cup (22° C.)
[16] = After 2 days in food cup (22° C.)
[17] = After 3 days in food cup (22° C.)
[18] = Expt. 2, 0.5 mmol/kg diet, 90 days
[19] = Expt. 2, 1 mmol/kg diet, 90 days
[20] = Expt. 2, 2 mmol/kg diet, 90 days

Percent Inhibition of [3H] Retinol Binding (CRBP Assay) [1]: 20 ± 5%
SMILES: COc1cccc(COC/C=C(C)/C=C/C=C(C)/C=C/C2=C(C)CCCC2(C)C)c1 [Compound 3f, Retinyl 3-Methoxy Benzyl Ether]
binding to CRBP, in words ([1]; 150-fold molar excess): modest, but significant, binding affinity

Percent Inhibition of [3H] Retinol Binding (CRBP Assay) [1]: 5 ± 5%
SMILES: COc1ccc(COC/C=C(C)/C=C/C=C(C)/C=C/C2=C(C)CCCC2(C)C)c(OC)c1OC [Compound 3i, Retinyl 2,3,4-Trimethoxybenzyl Ether]

binding to CRBP, in words ([1]; 150-fold molar excess): not conducive to CRBP binding
Percent Inhibition of [3H] Retinol Binding (CRBP Assay) [1]: 0%
SMILES: CC1=C(/C=C/C(C)=C/C=C/C(C)=C/COCc2ccc(C)cc2)C(C)(C)CCC1 [Compound 3g, Retinyl 4-Methylbenzyl Ether]

Percent Inhibition of [3H] Retinol Binding (CRBP Assay) [1]: 40 ± 5%
SMILES: CC1=C(/C=C/C(C)=C/C=C/C(C)=C/COCc2c(Cl)cccc2Cl)C(C)(C)CCC1 [Compound 3l, Retinyl 2,6-Dichlorobenzyl Ether]

Percent Inhibition of [3H] Retinol Binding (CRBP Assay) [1]: 0%
% recovery of retinyl ether from feed [3, 14]: 99.7%
% recovery of retinyl ether from feed [3, 15]: 95%
% recovery of retinyl ether from feed [3, 16]: 94%
% recovery of retinyl ether from feed [3, 17]: 97.9%
% recovery of retinyl ether from feed ([3]; Immediately After Mixing): 95%
% recovery of retinyl ether [3]: 98.7%
stability in diet mixtures [3]: essentially unchanged
SMILES: COc1cccc(COC/C=C(C)/C=C/C=C(C)/C=C/C2=C(C)CCCC2(C)C)c1OC [Compound 3h, Retinyl 2,3-Dimethoxybenzyl Ether]
effectiveness in reducing the number of tumors per rat ([2]; 90 days): not effective
Tumors, % of Control Gp. [2, 11]: 114%
Tumors, Avg. No. per Rat [2, 11]: 2.2
Tumors, % of Control Gp. [2, 12]: 104%
Tumors, Avg. No. per Rat [2, 12]: 2.0
Tumors, % of Control Gp. [2, 13]: 145%
Tumors, Avg. No. per Rat [2, 13]: 2.8

Percent Inhibition of [3H] Retinol Binding (CRBP Assay) [1]: 7 ± 6%
SMILES: CC1=C(/C=C/C(C)=C/C=C/C(C)=C/COCc2c(C)cc(C)cc2C)C(C)(C)CCC1 [Compound 3j, Retinyl 2,4,6-Trimethylbenzyl Ether]

Percent Inhibition of [3H] Retinol Binding (CRBP Assay) [1]: 0%
SMILES: CC1=C(/C=C/C(C)=C/C=C/C(C)=C/COCc2ccc(Cl)cc2Cl)C(C)(C)CCC1 [Compound 3k, Retinyl 2,4-Dichlorobenzyl Ether]

Percent Inhibition of [3H] Retinol Binding (CRBP Assay) [1]: 5 ± 5%
SMILES: CC1=C(/C=C/C(C)=C/C=C/C(C)=C/COCc2ccccc2)C(C)(C)CCC1 [Compound 3d, Retinyl Benzyl Ether]
binding to CRBP, in words ([1]; 150-fold molar excess): not conducive to CRBP binding; also recorded: does not bind significantly to CRBP

Continued, compound first:

SMILES: CC1=C(/C=C/C(C)=C/C=C/C(C)=C/COCc2cc(C)ccc2C)C(C)(C)CCC1 [Compound 3c, Retinyl 2,5-Dimethylbenzyl Ether]
Percent Inhibition of [3H] Retinol Binding (CRBP Assay) [1]: 65 ± 10%
effectiveness in reducing the number of tumors per rat ([2]; 90 days): not effective
Tumors, % of Control Gp. [2, 11]: 104%
Tumors, Avg. No. per Rat [2, 11]: 2.0
Tumors, % of Control Gp. [2, 12]: 171%
Tumors, Avg. No. per Rat [2, 12]: 3.3
Tumors, % of Control Gp. [2, 13]: 109%
Tumors, Avg. No. per Rat [2, 13]: 2.1
% recovery of retinyl ether from feed [3, 14]: 96%
% recovery of retinyl ether from feed [3, 15]: 106%
% recovery of retinyl ether from feed [3, 16]: 96%
% recovery of retinyl ether from feed [3, 17]: 102%
% recovery of retinyl ether from feed ([3]; Immediately After Mixing): 103%
% recovery of retinyl ether [3]: 100%
stability in diet mixtures [3]: essentially unchanged
NOAEL (in vivo): 431 mg/kg/day
Toxic Dose (in vivo): > 431 mg/kg day
clinical toxicity (alopecia, scaly skin, limping) (in vivo): No evidence of clinical toxicity except for scaly skin
toxicity in MNU-mammary cancer studies [4]: not toxic in the mammary carcinogenesis studies

SMILES: COc1ccc(COC/C=C(C)/C=C/C=C(C)/C=C/C2=C(C)CCCC2(C)C)cc1 [Compound 3e, Retinyl 4-Methoxybenzyl Ether]
binding to CRBP, in words ([1]; 150-fold molar excess): not conducive to CRBP binding
Percent Inhibition of [3H] Retinol Binding (CRBP Assay) [1]: 7 ± 7%
effectiveness compared with RTMBE ([2]; 90-day assays, MNU-induced mammary carcinogenesis): less effective than was RTMBE
reductions in the number of tumors per rat ([2]; 90-day study, 1 and 2 mmol/kg of diet): 37-49%
effectiveness in reducing the number of tumors per rat ([2]; 90 days): effective
Tumors, % of Control Gp. [2, 18]: 71%
Tumors, Avg. No. per Rat [2, 18]: 2.5
Tumors, % of Control Gp. [2, 19]: 63%
Tumors, Avg. No. per Rat [2, 19]: 2.2
Tumors, % of Control Gp. [2, 20]: 51%
Tumors, Avg. No. per Rat [2, 20]: 1.8
NOAEL (in vivo): 433 mg/kg/day
Toxic Dose (in vivo): > 433 mg/kg day
clinical toxicity (alopecia, scaly skin, limping) (in vivo): No evidence of clinical toxicity
toxicity in MNU-mammary cancer studies [4]: not toxic in the mammary carcinogenesis studies
Kp at 24 h [5]: 41 ± 14

SMILES: CC1=C(/C=C/C(C)=C/C=C/C(C)=C/COC(C)c2ccccc2)C(C)(C)CCC1 (stereo not drawn) [Compound 3m, Retinyl α-Methylbenzyl Ether]
Binding to CRBP, rating ([1]; 150-fold molar excess): strong binding
Percent Inhibition of [3H] Retinol Binding (CRBP Assay) [1]: 60 ± 0%

SMILES: CC(C)=CCOC/C=C(C)/C=C/C=C(C)/C=C/C1=C(C)CCCC1(C)C [RMBE, retinyl 3-methyl-2-butenyl ether]
accumulation of retinyl palmitate in the liver [6]: did not cause
suppression of MNU-induced mammary cancer [7]: inhibited the development of MNU-induced mammary cancer; also recorded: only modestly active

SMILES: CC(=O)OC/C=C(C)/C=C/C=C(C)/C=C/C1=C(C)CCCC1(C)C [Retinyl Acetate, retinyl acetate, reference compound]
reduction of the number of tumors per rat ([2]; 90 days, at 1 mmol/kg): 66%
Tumors, % of Control Gp. [2, 19]: 34%
Tumors, Avg. No. per Rat [2, 19]: 1.2
Adenocarcinomas, % of Control Group A ([8]; 1 mmol/kg diet): 70%
Adenocarcinomas, Avg. No. Per Rat ([8]; 1 mmol/kg diet): 4.5
reduction of average number of tumors per rat ([8]; 1 mmol/kg feed): 30%
% of Control Gp., Day 90 [9]: 48%
% of Control Gp., Day 180 [9]: 49%
Avg No. Per Rat (palpable mammary tumors), Day 90 [9]: 1.1
Avg No. Per Rat (palpable mammary tumors), Day 180 [9]: 3.1
accumulation of retinyl palmitate in the liver [6]: a toxic effect produced by efficacious amounts

SMILES: CC#CCOCC#CC [Compound 1e, 2-butynyl ether]
stability in refluxing ethanol [10]: intramolecular cyclization
